From patent US11590092B2, “Skin probiotic” (The Regents of the University of California, priority 2014, dated 2023)
Entries after “also recorded” stand apart in the source; their conditions may differ.

Experiments:
USA300 = assay: In vivo skin wound infection with USA300; parameters: species or system ICR mice; conditions: for USA300 colonization / growth in the skin lesions: vs controls
Procedure: (§1) ICR mice (2-3-month-old female) were anesthetized by isoflurane. In each experiment, there were five mice per group. A wound 5 mm in length was made on the dorsal skin after shaving with electrical clippers. Once the skin wound was created, 5 μl of propionic acid (100 mM), PBS (pH 7.1) or PBS (pH 3.5) was applied topically to the wounded areas. The wounds were left uncovered throughout the experimental period. For bacterial infection, USA300 (2×10^6 CFU in PBS) was applied topically to the wounded areas 10 min after application of propionic acid or PBS. For the measurement of the extent of wound closure, a transparent parafilm was put on the top of the wounded skin. The wound area was marked on the parafilm by drawing an area which covered the whole skin wound. The lesion size was measured daily for 8 days was calculated using the ImageJ software [National Institutes of Health (NIH), Bethesda, Md., USA] and expressed as mm^2. Student's t-test was used to determine the significance of the differences between groups of the PBS (pH 7.1)- and propionic acid-treated mice as well as the PBS (pH 7.1)- and PBS (pH 3.5)-treated mice. Data represent the mean±SD from three independent experiments. All experiments using mice were conducted in a Biosafety Level 2 (BSL-2) facility and with accordance to institutional guidelines for animal experiments.
The USA300-infected skins treated with propionic acid and its controls were cross-sectioned, stained with hematoxylin and eosin (H&E) (Sigma, St. Louis, Mo.), and viewed on a Bx51 research microscope (Olympus, Melville, N.Y., USA). To determine the bacterial number in infected skin, the whole area of infected skin was excised 72 h after bacterial application. The excised skin was homogenized in 200 μl of sterile PBS with a hand tissue grinder. Bacterial CFUs in the skin were enumerated by plating serial dilutions (1:10^1-1:10^6) of the homogenate on a TSB agar plate. The plate was incubated for 24 h at 37° C. to count colonies.
ICR mice (2-3 month-old females; Harlan Labs, Placentia, Calif., USA) were anesthetized by isoflurane. A 5 mm wounds were made on the dorsal skin following shaving with electrical clippers. Following skin wounding, 5 μl of filter sterilized media obtained by incubating P. acnes (10^5 CFU/ml in 10 ml) with/without glycerol for 17 days or 5 μl of media with glycerol (control) were applied and to the wounded areas. To determine if propionic acid can prevent or mitigate the MRSA infection, 5 μl of 100 mM propionic acid was applied to the wounded areas. Application of PBS/pH (pH 3.5, corresponding to pH for 100 mM propionic acid) or PBS (pH 7.1) to the wounded areas served as controls. The wounds were left uncovered throughout the experimental period. USA300 (2×10^6 CFU in 5 μl PBS) was then applied to the wounds 10 min after application of various media, propionic acid or PBS controls. To measure the extent of wound closure, a transparent parafilm was placed over the wounded skin and the area was marked by outlining the area of the wound. The lesion size (mm^2) was measured daily for 8 days then calculated with ImageJ software (NIH, Bethesda, Md., USA). Five mice per group per experiments were used. A Student's t-test was used to determine the significance of the differences between groups. Data represent the mean±SD from three independent experiments. All experiments using mice were conducted in a biosafety level 2 (BSL-2) facility and in accordance with institutional guidelines for animal experiments. To determine the bacterial counts in infected skin, the infected skin was excised 72 h following bacterial application. The excised skin was weighted and homogenized in 200 μl of sterile PBS with a tissue grinder. Bacterial CFUs in the skin were enumerated by plating serial dilutions (1:10^1-1:10^6) of the homogenate on a TSB agar plate. The plate was incubated for 24 h at 37° C. to count colonies. […]

[1] = Skin wound healing without USA300 inoculation; format: in vivo, ICR mice; conditions: topical 100 mM propionic acid vs PBS (pH 7.1) and PBS/pH (pH 3.5), 8-day period
Procedure: as §1

E. coli [2] = assay: Minimal bactericidal concentration test against E. coli; format: cell-based, Escherichia coli; conditions: MBC test
Procedure: (§2) To determine the minimal bactericidal concentration (MBC) and minimal fungicidal concentration (MFC) of propionic acid, microorganisms (10^6 colony forming units (cfu)/ml) were incubated overnight in media with propionic acid (1.25-2,000 mM) in a 96-well microplate (100 μl per well). The control only received PBS. After incubation, the microorganisms were diluted 1:10-1:10^6 into PBS. The dilutions (5 μl) were spotted onto agar media to count cfu; MBC/MFC were determined at 99.9% killing level. To determine the effect of pH on growth of S. aureus USA300, the bacterium was incubated in TSB at pH 5.8 and 6.8, and TSB with 25 mM propionic acid at pH 5.8 and 6.8 (buffered with 4-(2-hydroxyethyl)-1-piperazineethanesulfonic acid (HEPES)) in a 96-well microplate overnight before spotting onto agar plates.

P. acnes = assay: MBC test of propionic acid against P. acnes; format: cell-based, Propionibacterium acnes
Procedure: as §2

C. albicans = assay: Radial diffusion assay against C. albicans; format: cell-based, Candida albicans
Procedure: (§3) A radial diffusion assay (RDA) was performed as follows. Briefly, microorganisms in the mid-log phase were centrifuged at 12,000×g for 10 min, washed with PBS, and dispersed (10^5 cfu/ml) in agar consisting of 1% (w/v) agarose (Sigma) and 3% (w/v) culture medium in PBS at 42° C. Then, the agar was poured into Petri dishes and solidified. Wells (diameter 3 mm and volume 30 μl) were created by poking a pipette tip into the semi-solidified agar. Propionic acid was serially diluted in PBS to concentrations ranging from 5 to 2,000 mM, and 30 μl aliquots were added to the wells; PBS served as the control. After 3 h of incubation, a 10 ml overlay gel composed of 3% culture medium and 1% agarose was poured onto the plates, where after the plates were incubated overnight and examined for zones of growth inhibition.

E. coli [3] = assay: Radial diffusion assay against E. coli; format: cell-based, Escherichia coli
Procedure: as §3

Compound: CCC(=O)O [propionic acid]
- sizes of USA300-infected skin lesions (USA300; topical 100 mM propionic acid 10 min before USA300 (2×10^6 CFU), vs PBS): considerably decreased; also recorded: significantly reduced
- bacterial numbers in USA300-infected lesions (USA300; topical 100 mM propionic acid, three days after bacterial application (FIG. 10F)): 6.9±0.7×10^7 CFU
- bacterial numbers in USA300-infected lesions (USA300; topical 100 mM propionic acid, three days after bacterial application (FIG. 11F)): 1.4±1.4×10^7 CFU/g
- histological observation (H&E) of inflammatory response in wounds (USA300; topical 100 mM propionic acid, vs PBS-treated wounds): less pronounced inflammatory response; also recorded: attenuated inflammatory response
- USA300 colonization / growth in the skin lesions (USA300; topical 100 mM propionic acid): considerably decreased
- USA300 colonization / growth in the skin lesions (USA300; topical 100 mM propionic acid, listed as Propionic acid): significantly decreased
- changes in lesion sizes of wounds without USA300 inoculation [1]: not statistically different
- concentration that completely killed E. coli (E. coli [2]): ≥ 50 mM
- concentration that effectively suppressed the growth of E. coli (E. coli [2]): greater than 10 mM
- concentration at which growth inhibition of P. acnes was detectable (P. acnes; MBC tests, 5 to 2,000 mM tested): greater than 1000 mM
- growth of P. acnes (P. acnes; propionic acid 25 mM): did not affect the growth
- growth of P. acnes (P. acnes; propionic acid between 5 and 500 mM, MBC tests): did not affect the growth
- minimum effective concentration for growth inhibition zones, C. albicans (C. albicans): 10 mM
- minimum effective concentration for growth inhibition zones, E. coli (E. coli [3]): 10 mM
